{
  "source": "patent US20240207240A1",
  "about": "“Method for Improving or Treating Cognitive Dysfunction Complicating HIV-associated Cryptococcal Meningitis with Lenalidomide” (The First Affiliated Hospital Zhejiang University School of …, priority 2022, published 2024)",
  "key": {"CSF cytokines": {"tested_on": "CSF cytokines", "test": "Detection of inflammatory cytokines in CSF (Human Cytokine/Chemokine/Growth Factor Panel A)", "assay_type": "in vivo", "conditions": "W 24, after 6 cycles lenalidomide", "method": "Detection of inflammatory cytokines in CSF: CSF samples were collected from the participants and centrifuged immediately; and the supernatant was stored at −80° C. until testing. 32 CSF cytokines were analyzed using the Human Cytokine/Chemokine/Growth Factor Panel A (Merck Millipore, St. Louis, USA): α-2-macroglobulin (α-2-M), apolipoprotein A-I (apoA-I), Apo-E, complement C3, complement factor H (CFH), fibroblast growth factor 2 (FGF-2), granulocyte-colony stimulating factor (G-CSF), granulocyte-macrophage colony-stimulating factor (GM-CSF), interferon-γ (IFN-γ), growth-regulated oncogene (GRO), soluble CD40 ligand (sCD40L), platelet-derived growth factor-AA (PDGF-AA), interleukin (IL)-12p40, IL-12p70, IL-13, IL-1α, IL-1β, IL-2, IL-3, IL-4, IL-6, IL-8, IL-10, IL-17α, monocyte chemoattractant protein-1 (MCP-1), macrophage inflammatory protein-la (MIP-la), MIP-1β, tumor necrosis factor-a (TNF-α), IL-17α, amyloid-β (1-42) (αβ42), total Tau (tTau) and phosphorylated Tau 181 (pTau181), The abbreviations of CSF cytokines are provided in Table 3."}, "[1]": {"tested_on": "patients with cognitive dysfunction caused by HIV-associated CM-IRIS", "test": "Center for Epidemiological Research Depression Scale (CES-D)", "assay_type": "in vivo, human", "conditions": "before vs after lenalidomide treatment"}, "[2]": {"conditions": "cited from earlier work"}, "[3]": {"test": "withdrawal for adverse event in the lenalidomide treatment cohort", "assay_type": "in vivo, human", "conditions": "of 8 patients with cognitive dysfunction at enrollment", "method": "Screening process: 14 patients were included in the lenalidomide treatment cohort based on the inclusion and exclusion criteria: 8 had cognitive dysfunction at the time of enrollment. Among them, one patient withdrew from the study due to skin allergy, so only 7 patients were followed up for 24 weeks.\nLenalidomide Treatment: Patients were treated with six cycles of lenalidomide (one cycle: […] for 3 weeks, followed by 1 week ceased lenalidomide) when they were enrolled. The drug was stopped at the end of 6 cycles."}, "[4]": {"conditions": "individual patients P1-P4 (cognitive improvement group)"}, "[5]": {"conditions": "individual patients P5-P7 (cognitive non-improvement group)"}},
  "note": "Values joined by “and” are separate entries in the source; they are usually repeats but may differ in a detail not shown here. Equal entries are not always repeated.",
  "data": [
    {"smiles": "Nc1cccc2c1CN(C1CCC(=O)NC1=O)C2=O", "note": "(stereo not drawn) [lenalidomide]", "values": [
      {"measurement": "CSF IL-12p40", "setting": "CSF cytokines; [4]", "result": "1.78 pg/mL and 0.38 pg/mL and 0.92 pg/mL and 10.92 pg/mL"},
      {"measurement": "CSF IL-12p70", "setting": "CSF cytokines; [4]", "result": "2.46 pg/mL and 0.67 pg/mL and 2.09 pg/mL and 1.34 pg/mL"},
      {"measurement": "CSF IL-13", "setting": "CSF cytokines; [4]", "result": "1.19 pg/mL and 0.8 pg/mL and 0.71 pg/mL and 1.09 pg/mL"},
      {"measurement": "CSF IL-17α", "setting": "CSF cytokines; [4]", "result": 0.62, "unit": "pg/mL"},
      {"measurement": "CSF IP-10", "setting": "CSF cytokines; [4]", "result": "12150 pg/mL and 4404 pg/mL and 3063 pg/mL and 12231 pg/mL"},
      {"measurement": "CSF MCP-1", "setting": "CSF cytokines; [4]", "result": "1624 pg/mL and 2268 pg/mL and 987.31 pg/mL and 923.8 pg/mL"},
      {"measurement": "CSF MIP-1α", "setting": "CSF cytokines; [4]", "result": "4.61 pg/mL and 18.47 pg/mL and 3.38 pg/mL (2×)"},
      {"measurement": "CSF MIP-1β", "setting": "CSF cytokines; [4]", "result": "23.79 pg/mL and 31.7 pg/mL and 9.58 pg/mL and 5.86 pg/mL"},
      {"measurement": "CSF PDGF-AA", "setting": "CSF cytokines; [4]", "result": "5.66 pg/mL and 6.92 pg/mL and 2.78 pg/mL (2×)"},
      {"measurement": "CSF TNF-α", "setting": "CSF cytokines; [4]", "result": "7.46 pg/mL and 6.82 pg/mL and 2.46 pg/mL and 8.22 pg/mL"},
      {"measurement": "CSF apoA-I", "setting": "CSF cytokines; [4]", "result": "6850 pg/mL and 683.32 pg/mL and 668.25 pg/mL and 788.79 pg/mL"},
      {"measurement": "CSF pTau 181", "setting": "CSF cytokines; [4]", "result": "61.43 pg/mL and 38.37 pg/mL and 42.96 pg/mL and 19.12 pg/mL"},
      {"measurement": "CSF sCD40L", "setting": "CSF cytokines; [4]", "result": "2.49 pg/mL (3×) and 4.91 pg/mL"},
      {"measurement": "CSF tTau", "setting": "CSF cytokines; [4]", "result": "1594 pg/mL and 431.47 pg/mL and 752.55 pg/mL and 234.58 pg/mL"},
      {"measurement": "CSF α-2-M", "setting": "CSF cytokines; [4]", "result": "10777 pg/mL and 4765 pg/mL and 3814 pg/mL and 2942 pg/mL"},
      {"measurement": "CSF αβ42", "setting": "CSF cytokines; [4]", "result": "2364 pg/mL and 708.02 pg/mL and 1573 pg/mL and 693.92 pg/mL"},
      {"measurement": "CSF Apo. E", "setting": "CSF cytokines; [5]", "result": "5462 pg/mL and 2829 pg/mL and 2633 pg/mL"},
      {"measurement": "CSF CFH", "setting": "CSF cytokines; [5]", "result": "3699 pg/mL and 1253 pg/mL and 2446 pg/mL"},
      {"measurement": "CSF Complement C3", "setting": "CSF cytokines; [5]", "result": "4249 pg/mL and 2914 pg/mL and 1335 pg/mL"},
      {"measurement": "CSF FGF-2", "setting": "CSF cytokines; [5]", "result": "13.73 pg/mL and 48.91 pg/mL"},
      {"measurement": "CSF G-CSF", "setting": "CSF cytokines; [5]", "result": 2.84, "unit": "pg/mL"},
      {"measurement": "CSF GM-CSF", "setting": "CSF cytokines; [5]", "result": "2.58 pg/mL and 1.29 pg/mL (2×)"},
      {"measurement": "CSF GRO", "setting": "CSF cytokines; [5]", "result": "117.5 pg/mL and 44.05 pg/mL and 73.45 pg/mL"},
      {"measurement": "CSF IFN-γ", "setting": "CSF cytokines; [5]", "result": "1.67 pg/mL and 1.01 pg/mL and 0.66 pg/mL"},
      {"measurement": "CSF IL-1α", "setting": "CSF cytokines; [5]", "result": "3.37 pg/mL and 1.95 pg/mL and 1.42 pg/mL"},
      {"measurement": "CSF IL-1β", "setting": "CSF cytokines; [5]", "result": "2.16 pg/mL and 1.03 pg/mL and 1.13 pg/mL"},
      {"measurement": "CSF IL-2", "setting": "CSF cytokines; [5]", "result": "1.44 pg/mL and 0.7 pg/mL and 0.74 pg/mL"},
      {"measurement": "CSF IL-3", "setting": "CSF cytokines; [5]", "result": "0.82 pg/mL and 0.52 pg/mL and 0.3 pg/mL"},
      {"measurement": "CSF IL-4", "setting": "CSF cytokines; [5]", "result": "2.71 pg/mL and 2.22 pg/mL and 0.49 pg/mL"},
      {"measurement": "CSF IL-6", "setting": "CSF cytokines; [5]", "result": 2.85, "unit": "pg/mL"},
      {"measurement": "CSF IL-8", "setting": "CSF cytokines; [5]", "result": "234.05 pg/mL and 62.23 pg/mL and 171.82 pg/mL"},
      {"measurement": "CSF IL-10", "setting": "CSF cytokines; [5]", "result": "2.45 pg/mL and 3.7 pg/mL"},
      {"measurement": "CSF IL-12p40", "setting": "CSF cytokines; [5]", "result": "1.65 pg/mL and 1.13 pg/mL and 0.52 pg/mL"},
      {"measurement": "CSF IL-12p70", "setting": "CSF cytokines; [5]", "result": "2.69 pg/mL and 1.25 pg/mL and 1.44 pg/mL"},
      {"measurement": "CSF IL-13", "setting": "CSF cytokines; [5]", "result": "1.91 pg/mL and 0.99 pg/mL and 0.92 pg/mL"},
      {"measurement": "CSF IL-17α", "setting": "CSF cytokines; [5]", "result": "1.13 pg/mL and 0.62 pg/mL"},
      {"measurement": "CSF IP-10", "setting": "CSF cytokines; [5]", "result": "13221 pg/mL and 3398 pg/mL and 9823 pg/mL"},
      {"measurement": "CSF MCP-1", "setting": "CSF cytokines; [5]", "result": "3992.12 pg/mL and 981.12 pg/mL and 3011 pg/mL"},
      {"measurement": "CSF MIP-1α", "setting": "CSF cytokines; [5]", "result": "3.38 pg/mL and 5 pg/mL"},
      {"measurement": "CSF MIP-1β", "setting": "CSF cytokines; [5]", "result": "31.83 pg/mL and 13.92 pg/mL and 17.91 pg/mL"},
      {"measurement": "CSF PDGF-AA", "setting": "CSF cytokines; [5]", "result": "6.89 pg/mL and 2.9 pg/mL and 3.99 pg/mL"},
      {"measurement": "CSF TNF-α", "setting": "CSF cytokines; [5]", "result": "8.22 pg/mL and 3.01 pg/mL and 5.21 pg/mL"},
      {"measurement": "CSF apoA-I", "setting": "CSF cytokines; [5]", "result": "2047.9 pg/mL and 833.9 pg/mL and 1214 pg/mL"},
      {"measurement": "CSF pTau 181", "setting": "CSF cytokines; [5]", "result": "85.14 pg/mL and 48.8 pg/mL and 36.34 pg/mL"},
      {"measurement": "CSF sCD40L", "setting": "CSF cytokines; [5]", "result": 2.49, "unit": "pg/mL"},
      {"measurement": "CSF tTau", "setting": "CSF cytokines; [5]", "result": "1309.82 pg/mL and 681.32 pg/mL and 628.5 pg/mL"},
      {"measurement": "CSF α-2-M", "setting": "CSF cytokines; [5]", "result": "7109 pg/mL and 2778 pg/mL and 4331 pg/mL"},
      {"measurement": "CSF αβ42", "setting": "CSF cytokines; [5]", "result": "2453 pg/mL and 1168 pg/mL and 1285 pg/mL"},
      {"measurement": "CES-D score for anxiety or depression, before to after treatment", "setting": "[1]", "result": "no significant difference"},
      {"measurement": "bioavailability", "setting": "[2]", "result": "high"},
      {"measurement": "patients withdrawn from the study due to skin allergy", "setting": "[3]", "result": "one"}
    ]}
  ]
}
